Measured values as given in US20260272895A1, “METHODS AND KITS FOR DELIVERY OF COMPOUNDS INTO CELLS” (Yale University, priority 2023, published 2026).

Tests used:
SLCO1A2 [1] = molecular target: T1, SLCO1A2 (Homo sapiens, UniProt P46721); assay: Compound uptake in HEK293 cells transfected with SLCO1A2; format: cell-based; set-up: FLAG
T1 sequence (P46721 1-670): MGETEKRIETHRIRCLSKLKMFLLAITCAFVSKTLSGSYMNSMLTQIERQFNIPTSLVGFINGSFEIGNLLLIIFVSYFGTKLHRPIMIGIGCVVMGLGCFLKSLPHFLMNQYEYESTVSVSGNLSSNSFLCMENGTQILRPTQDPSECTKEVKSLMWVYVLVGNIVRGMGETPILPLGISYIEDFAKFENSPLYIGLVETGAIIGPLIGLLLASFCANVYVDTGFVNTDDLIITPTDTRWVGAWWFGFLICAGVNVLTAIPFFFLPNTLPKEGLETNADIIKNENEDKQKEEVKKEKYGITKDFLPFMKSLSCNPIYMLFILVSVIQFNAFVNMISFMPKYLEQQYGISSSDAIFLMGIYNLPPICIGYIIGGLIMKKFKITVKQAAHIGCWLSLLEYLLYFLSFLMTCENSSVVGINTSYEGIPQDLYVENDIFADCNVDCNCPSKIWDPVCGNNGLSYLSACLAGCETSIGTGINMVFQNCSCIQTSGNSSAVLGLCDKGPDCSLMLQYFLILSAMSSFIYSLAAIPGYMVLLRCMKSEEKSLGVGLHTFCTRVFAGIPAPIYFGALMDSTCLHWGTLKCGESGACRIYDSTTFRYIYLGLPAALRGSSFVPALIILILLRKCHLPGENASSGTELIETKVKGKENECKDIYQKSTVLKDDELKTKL
Procedure: HEK293 cells are cultured and seeded at ~60% confluency in 24-well plates and are transiently transfected with 250 ng of a candidate transporter and 1 μL transfection reagent (JetPRIME). After 2 days, cells are washed and novel fluorescent probes at different concentrations are added to the transport medium and incubated at 37° C., for at least 30 minutes. To terminate the transport, cells are washed with PBS and fixed with 4% paraformaldehyde. The colocalization of probe uptake and cells expressing the transporters is investigated by immunostaining the transporter which has a fused FLAG tag, using anti-FLAG 488. Before confocal imaging, nuclei are labeled with Hoechst 33342 and cells are mounted and imaged on a Leica SP8 confocal microscope.
For in vitro experiments, HEK293 cells were cultured and seeded in 24-well plates, reaching approximately 60% confluency. For transient transfection, 250 ng of a candidate transporter plasmid and 1 μL of transfection reagent (JetPRIME) were added to the cells. After a 2-day incubation period, the cells were washed, and novel fluorescent probes were introduced into the transport medium at various concentrations. The cells were then incubated at 37° C., for a minimum of 30 minutes to allow for uptake. To stop the transport process, the cells were washed with PBS and fixed using 4% paraformaldehyde. Immunostaining of the transporter, which was fused with a FLAG tag, was performed using an anti-FLAG 488 antibody. Before confocal imaging, the cell nuclei were labeled with Hoechst 33342. Finally, the cells were mounted and imaged using a Leica SP8 confocal microscope.

SLCO1A2 [2] = molecular target: T1, SLCO1A2; assay: Uptake by cells ectopically expressing SLCO1A2 (in utero electroporation or AAV8) in live mice; format: in vivo, mouse; set-up: P2A:EGFP (AAV8 construct only; EGFP is separated at P2A) (C, cleaved yes); FLAG (in utero electroporation plasmid only); host or cells: cortical neurons of live mice (AAV8 subarachnoid infusion or in utero electroporation); conditions: topical cortical administration (50 μM where stated)
Procedure: IUE is performed at E14 or E15 as previously done. Briefly, timed pregnant mice are anaesthetized with ketamine/xylazine. The abdominal region is shaved, sterilized and a 3 cm midline incision is made in the skin and abdominal muscle. The uterine horns are exposed, and the lateral ventricle of each embryo is pressure injected (Picospritzer II, General Valve) with plasmid DNA (~[…] volume per embryo) at a concentration of […] followed by electroporation with tweezertrodes (50 V, 4-50 ms pulses with I s pulse interval. BTX Harvard Apparatus). The embryos are placed back in the mother womb, and the muscle and skin are sutured. Electroporated pups are aged to postnatal day 30. Imaging is performed through a craniotomy over the transfected hemisphere following dye labeling.
The Adeno-associated virus (AAV) for expression of SLCO1A2 was custom-made (VectorBuilders). Briefly, The AAV8 virus carrying the pAAV-CAG>hSLCO1A2:P2A:EGFP construct was produced by cloning the hSLCO1A2 gene variant downstream of the CAG promoter in the pAAV8 expression vector. A P2A sequence was inserted to link the hSLCO1A2 gene with the EGFP coding sequence. The constructed vector was transfected into HEK293 cells, and the virus produced was harvested and ultra-purified for a final titer >10^13 GC/mL. AAV virus were injected into the mouse subarachnoid space using a previously described method. Briefly, mice were anesthetized with ketamine-xylazine. A skull window, approximately 1 mm in diameter, was created using a high-speed drill at coordinates 6 mm anteroposterior and 3 mm mediolateral from bregma. Subsequently, a 30-gauge needle was carefully used to lift a small piece of thinned skull, exposing the underlying dura. The stock solutions of AAV were diluted in fresh sterile phosphate-buffered saline (PBS) solution (1:20, v/v) at room temperature, then kept on ice and adjusted to a titer of 10^12 GC/mL. The AAV solutions were loaded into a Tygon tube, connected to a polypropylene tip with an outer diameter of 70 μm, which was further attached to a programmable syringe pump with a Hamilton syringe. […]

COc1cc2c(c(OC)c1OC)-c1ccc(OC)c(=O)cc1C(NS(=O)(=O)c1ccc(-c3c4ccc(N(C)C)cc4[o+]c4cc(N(C)C)ccc34)c(S(=O)(=O)[O-])c1)CC2 (centres unmarked) [Compound 47, 2-(3,6-bis(dimethylamino)xanthylium-9-yl)-5-(N-(1,2,3,10-tetramethoxy-9-oxo-5,6,7,9-tetrahydrobenzo[a]heptalen-7-yl)sulfamoyl)benzenesulfonate]
uptake in SLCO1A2 transfected HEK293 cells (SLCO1A2 [1]; 10 μM): robust and selective uptake | uptake by neurons ectopically expressing SLCO1A2 (SLCO1A2 [2]; listed as Colchicine-eEDITS): robust uptake by cells expressing SLCO1A2 | uptake by neurons ectopically expressing SLCO1A2 (SLCO1A2 [2]; listed as Colchicine-eEDiTS): marked uptake

O=S(=O)([O-])c1cc(S(=O)(=O)O)ccc1C1=c2cc3c4c(c2Oc2cc(Br)ccc21)CCC[N+]=4CCC3 [Compound 1, 2-(12-bromo-1,2,3,5,6,7-hexahydrochromeno[2,3-f]pyrido[3,2,1-ij]quinolin-4-ium-9-yl)-5-sulfobenzenesulfonate]
uptake in SLCO1A2 transfected HEK293 cells (SLCO1A2 [1]; concentration not given): only those cells expressing the carrier SLCO1A2 (as evidenced by anti-FLAG labeling-green) take up compound 1 | uptake by neurons ectopically expressing SLCO1A2 (SLCO1A2 [2]): only those cells that express SLCO1A2 or SLCO1A4 (as evidenced by the GFP fluorescence (green)) take up compound 1
